Experimental data from ChEMBL document CHEMBL3351973, “4(α-l-rhamnosyloxy)-benzyl isothiocyanate, a bioactive phytochemical that attenuates secondary damage in an experimental model of spinal cord injury” (Bioorg Med Chem, 2015).
Activity calls are given as the source filed them.

Key:
Assay type in all cases: functional, organism-based
Set-up in all cases: dose 10 mg/kg
Mus musculus [1] = assay: Protection against injury in CD-1 mouse spinal cord injury model assessed as edema at 10 mg/kg, ip measured on day 7 by hematoxylin/eosin staining-based assay relative to control
Mus musculus [2] = assay: Neuroprotective activity in CD-1 mouse spinal cord injury model assessed as alteration of white matter at 10 mg/kg, ip measured on day 7 by hematoxylin/eosin staining-based assay relative to control
Mus musculus [3] = assay: Protection against injury in CD-1 mouse spinal cord injury model assessed as infiltration of leukocyte at 10 mg/kg, ip measured on day 7 by hematoxylin/eosin staining-based assay relative to control
Mus musculus [4] = assay: Protection against injury in CD-1 mouse spinal cord injury model assessed as distribution of reticular fibre at 10 mg/kg, ip measured on day 7 by hematoxylin/eosin staining-based assay relative to control
Mus musculus [5] = assay: Antiinflammatory activity in CD-1 mouse spinal cord injury model assessed as IkappaB-alpha expression at 10 mg/kg, ip measured on day 7 by Western blotting analysis relative to control
Mus musculus [6] = assay: Antiinflammatory activity in CD-1 mouse spinal cord injury model assessed as reduction of NF-kappaB-p65 level at 10 mg/kg, ip measured on day 7 by immunohistological analysis relative to control
Mus musculus [7] = assay: Antiinflammatory activity in CD-1 mouse spinal cord injury model assessed as reduction in iNOS expression at 10 mg/kg, ip measured on day 7 by immunohistological analysis relative to control
Mus musculus [8] = assay: Antiapoptotic activity in CD-1 mouse spinal cord injury model assessed as reduction in Bax level at 10 mg/kg, ip measured on day 7 by immunohistological analysis relative to control
Mus musculus [9] = assay: Antiapoptotic activity in CD-1 mouse spinal cord injury model assessed as increase in Bcl-2 level at 10 mg/kg, ip measured on day 7 by immunohistological analysis relative to control
Mus musculus [10] = assay: Antiapoptotic activity in CD-1 mouse spinal cord injury model assessed as reduction in caspase expression at 10 mg/kg, ip measured on day 7 by Western blotting analysis relative to control

Measured: Activity

C[C@@H]1O[C@@H](Oc2ccc(CN=C=S)cc2)[C@H](O)[C@H](O)[C@H]1O
active: all assays above
